Measurements published in ChEMBL document CHEMBL4382216, “Asymmetric synthesis and biological evaluation of imidazole- and oxazole-containing synthetic lipoxin A4 mimetics (sLXms)” (Eur J Med Chem, 2019).
Calls of active or inactive are those of the source. No cut-off for these calls is given here.

Columns and labels:
[1] = target: T1, N-formyl peptide receptor 2 (Homo sapiens) (UniProt P25090); assay: Agonist activity at ALX/FPR2 in human THP1 cells harboring NF-kB-Luc assessed as inhibition of LPS-induced NFkB signalling activation by measuring IL-12p70 secretion at 10^-9 M pretreated for 30 mins followed by LPS stimulation for 24 hrs by electrochemiluminescence assay; type: cell-based; parameters: scale not given: the % may be the effect or the level left
T1 sequence (whole entry): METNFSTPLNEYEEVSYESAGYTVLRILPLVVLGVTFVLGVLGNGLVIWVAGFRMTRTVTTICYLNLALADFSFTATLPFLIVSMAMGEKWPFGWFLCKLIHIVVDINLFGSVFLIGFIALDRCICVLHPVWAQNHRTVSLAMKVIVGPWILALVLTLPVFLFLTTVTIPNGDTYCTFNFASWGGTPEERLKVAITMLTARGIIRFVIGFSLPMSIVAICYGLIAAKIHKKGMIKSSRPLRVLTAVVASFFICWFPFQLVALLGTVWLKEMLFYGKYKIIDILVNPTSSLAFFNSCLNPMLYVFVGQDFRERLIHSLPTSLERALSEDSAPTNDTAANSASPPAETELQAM

[2] = target: T1, N-formyl peptide receptor 2 (Homo sapiens); assay: Agonist activity at ALX/FPR2 (unknown origin) expressed in HEK293 cells co-expressing Galphaq assessed as induction of intracellular calcium accumulation at 0.01 nM to 100 nM by Fluo-4 dye based fluorescence spectrophotometric assay; type: functional, cell-based
HEK293 = assay: Induction of intracellular calcium accumulation in HEK293 cells at 0.01 nM to 100 nM by Fluo-4 dye based fluorescence spectrophotometric assay; type: functional, cell-based; settings: Homo sapiens
[3] = target: T1, N-formyl peptide receptor 2 (Homo sapiens); assay: Agonist activity at ALX/FPR2 in human THP1 cells harboring NF-kB-Luc assessed as inhibition of LPS-induced NFkB signalling activation by measuring NF-kB activation level at 10^-12 M pretreated for 30 mins followed by LPS stimulation for 24 hrs by luciferase reporter gene assay; type: cell-based; parameters: scale not given: the % may be the effect or the level left
[4] = target: T2, N-formyl peptide receptor 2 (Homo sapiens, UniProt P25090); assay: Agonist activity at ALX/FPR2 in human THP1 cells harboring NF-kB-Luc assessed as inhibition of LPS-induced NFkB signalling activation by measuring reduction in IL-12p70 secretion pretreated for 30 mins followed by LPS stimulation for 24 hrs by electrochemiluminescence assay; type: cell-based; settings: read-out: IC50
T2 sequence (P25090 whole entry): T1 sequence (whole entry)

[5] = target: T1, N-formyl peptide receptor 2 (Homo sapiens); assay: Agonist activity at ALX/FPR2 in human THP1 cells harboring NF-kB-Luc assessed as inhibition of LPS-induced NFkB signalling activation by measuring IFNgamma secretion at 10^-9 M pretreated for 30 mins followed by LPS stimulation for 24 hrs by electrochemiluminescence assay; type: cell-based; parameters: scale not given: the % may be the effect or the level left
[6] = target: T1, N-formyl peptide receptor 2 (Homo sapiens); assay: Agonist activity at ALX/FPR2 in human THP1 cells harboring NF-kB-Luc assessed as inhibition of LPS-induced NFkB signalling activation by measuring IL-12p70 secretion at 10^-11 M pretreated for 30 mins followed by LPS stimulation for 24 hrs by electrochemiluminescence assay; type: cell-based; parameters: scale not given: the % may be the effect or the level left
[7] = target: T1, N-formyl peptide receptor 2 (Homo sapiens); assay: Agonist activity at ALX/FPR2 in human THP1 cells harboring NF-kB-Luc assessed as inhibition of LPS-induced NFkB signalling activation by measuring IL-1beta secretion at 10^-7 M pretreated for 30 mins followed by LPS stimulation for 24 hrs by electrochemiluminescence assay; type: cell-based; parameters: scale not given: the % may be the effect or the level left
[8] = target: T2, N-formyl peptide receptor 2; assay: Agonist activity at ALX/FPR2 in human THP1 cells harboring NF-kB-Luc assessed as inhibition of LPS-induced NFkB signalling activation by measuring reduction in IL-6 secretion pretreated for 30 mins followed by LPS stimulation for 24 hrs by electrochemiluminescence assay; type: cell-based; settings: read-out: IC50
[9] = target: T1, N-formyl peptide receptor 2 (Homo sapiens); assay: Agonist activity at ALX/FPR2 in human THP1 cells harboring NF-kB-Luc assessed as inhibition of LPS-induced NFkB signalling activation by measuring IL-12p70 secretion at 10^-7 M pretreated for 30 mins followed by LPS stimulation for 24 hrs by electrochemiluminescence assay; type: cell-based; parameters: scale not given: the % may be the effect or the level left
[10] = target: T1, N-formyl peptide receptor 2 (Homo sapiens); assay: Agonist activity at ALX/FPR2 in human THP1 cells harboring NF-kB-Luc assessed as inhibition of LPS-induced NFkB signalling activation by measuring NF-kB activation level at 10^-9 M pretreated for 30 mins followed by LPS stimulation for 24 hrs by luciferase reporter gene assay; type: cell-based; parameters: scale not given: the % may be the effect or the level left
Homo sapiens [11] = organism: Homo sapiens; assay: Activation of Luc-fused NFkB (unknown origin) expressed in non-stimulated human THP1 cells assessed as relative luminescence unit at 10^-7 M after 24 hrs by luciferase reporter gene assay (reference value: 100%); type: cell-based
THP-1 [12] = assay: Cytotoxicity against human THP1 cells harboring NFkB-Luc assessed as LDH release at 10'6 M after 24 hrs by spectrophotometric method relative to control; type: cell-based; settings: thp-1, 24 h
THP-1 [13] = assay: Cytotoxicity against human THP1 cells harboring NFkB-Luc assessed as LDH release at 10'9 M after 24 hrs by spectrophotometric method relative to control; type: cell-based; settings: thp-1, 24 h
Homo sapiens [14] = organism: Homo sapiens; assay: Activation of Luc-fused NFkB (unknown origin) expressed in non-stimulated human THP1 cells assessed as relative luminescence unit at 10^-8 M after 24 hrs by luciferase reporter gene assay (reference value: 100%); type: cell-based
Mus musculus [15] = assay: Anti-inflammatory activity in zymosan-induced C57BL/6J mouse peritonitis model assessed as total cell count in peritoneal cavity at 43 ng, ip pretreated for 30 mins followed by zymosan treatment and redosing of test compound at 1 hr post zymosan addition and measured at 24 hrs post zymosan addition by flow cytometry (reference value: 100%); type: functional
THP-1 [16] = assay: Cytotoxicity against human THP1 cells harboring NFkB-Luc assessed as LDH release at 10'11 M after 24 hrs by spectrophotometric method relative to control; type: cell-based; settings: thp-1, 24 h
Homo sapiens [17] = organism: Homo sapiens; assay: Activation of Luc-fused NFkB (unknown origin) expressed in non-stimulated human THP1 cells assessed as relative luminescence unit at 10^-11 M after 24 hrs by luciferase reporter gene assay (reference value: 100%); type: cell-based
Homo sapiens [18] = organism: Homo sapiens; assay: Activation of Luc-fused NFkB (unknown origin) expressed in non-stimulated human THP1 cells assessed as relative luminescence unit at 10^-10 M after 24 hrs by luciferase reporter gene assay (reference value: 100%); type: cell-based
THP-1 [19] = assay: Cytotoxicity against human THP1 cells harboring NFkB-Luc assessed as LDH release at 10'12 M after 24 hrs by spectrophotometric method relative to control; type: cell-based; settings: thp-1, 24 h
THP-1 [20] = assay: Cytotoxicity against human THP1 cells harboring NFkB-Luc assessed as LDH release at 10'8 M after 24 hrs by spectrophotometric method relative to control; type: cell-based; settings: thp-1, 24 h
THP-1 [21] = assay: Cytotoxicity against human THP1 cells harboring NFkB-Luc assessed as LDH release at 10'7 M after 24 hrs by spectrophotometric method relative to control; type: cell-based; settings: thp-1, 24 h
THP-1 [22] = assay: Cytotoxicity against human THP1 cells harboring NFkB-Luc assessed as LDH release at 10'10 M after 24 hrs by spectrophotometric method relative to control; type: cell-based; settings: thp-1, 24 h
Homo sapiens [23] = organism: Homo sapiens; assay: Activation of Luc-fused NFkB (unknown origin) expressed in non-stimulated human THP1 cells assessed as relative luminescence unit at 10^-12 M after 24 hrs by luciferase reporter gene assay (reference value: 100%); type: cell-based
Mus musculus [24] = assay: Anti-inflammatory activity in zymosan-induced C57BL/6J mouse peritonitis model assessed as reduction in total cell count in peritoneal cavity at 43 ng, ip pretreated for 30 mins followed by zymosan treatment and redosing of test compound at 1 hr post zymosan addition and measured at 24 hrs post zymosan addition by flow cytometry relative to basal level (reference value: 14); type: functional

Activity [1]	Activity [2]	Activity [3]	IC50 [4]	Activity [5]	Activity [6]	Activity [7]	IC50 [8]	Activity [9]	Activity [10]	Structure (SMILES)	Activity (HEK293)	Activity (Homo sapiens [11])	fold change (FC) (THP-1 [12])	fold change (FC) (THP-1 [13])	Activity (Homo sapiens [14])	Emax (Mus musculus [15])	fold change (FC) (THP-1 [16])	Activity (Homo sapiens [17])	Activity (Homo sapiens [18])	fold change (FC) (THP-1 [19])	also measured
37.1%	Active	95.3%	11.8 nM	36.1%	25.7%	5.7%	1.7 nM	29.6%	84.2%	CCCCC[C@H](O)/C=C/C=C\C=C\C=C\[C@@H](O)[C@@H](O)CCCC(=O)O [LIPOXIN A4]	inactive	–	–	–	–	–	–	–	–	–	–
68.3%	–	99.5%	10 nM	71.4%	67.7%	57.7%	0.5 nM	86.2%	85.2%	CCCCC[C@@H](O)c1nc(-c2ccccc2)n(-c2ccccc2)c1/C=C/[C@@H](O)[C@@H](O)CCCC(=O)OC	–	0.8%	1.1	0.8	1.2%	42.5%	0.5	1.5%	1.5%	0.5	fold change (FC) (THP-1 [20]): 0.9; fold change (FC) (THP-1 [21]): 1.1; fold change (FC) (THP-1 [22]): 0.6; Activity (Homo sapiens [23]): 1.7%; fold change (FC) (Mus musculus [24]): 6
61.4%	Active	88.2%	1 nM	68.4%	65.1%	67.4%	12 nM	138%	80.3%	CCCCC[C@H](O)c1nc(-c2ccccc2)n(-c2ccccc2)c1/C=C/[C@@H](O)[C@@H](O)CCCC(=O)OC	inactive	0.9%	1.6	0.8	1.2%	19.5%	0.6	1.4%	1.7%	0.6	fold change (FC) (THP-1 [20]): 1; fold change (FC) (THP-1 [21]): 1.4; fold change (FC) (THP-1 [22]): 0.6; Activity (Homo sapiens [23]): 1.3%; fold change (FC) (Mus musculus [24]): 3
